How the values were obtained:
[1] = target: T1, Histone deacetylase 8 (Homo sapiens) (UniProt Q9BY41); assay: Inhibition of HDAC8 (unknown origin) assessed as remaining enzyme activity at 1.6 x 10^-6 M by ELISA-based assay
T1 sequence (whole entry): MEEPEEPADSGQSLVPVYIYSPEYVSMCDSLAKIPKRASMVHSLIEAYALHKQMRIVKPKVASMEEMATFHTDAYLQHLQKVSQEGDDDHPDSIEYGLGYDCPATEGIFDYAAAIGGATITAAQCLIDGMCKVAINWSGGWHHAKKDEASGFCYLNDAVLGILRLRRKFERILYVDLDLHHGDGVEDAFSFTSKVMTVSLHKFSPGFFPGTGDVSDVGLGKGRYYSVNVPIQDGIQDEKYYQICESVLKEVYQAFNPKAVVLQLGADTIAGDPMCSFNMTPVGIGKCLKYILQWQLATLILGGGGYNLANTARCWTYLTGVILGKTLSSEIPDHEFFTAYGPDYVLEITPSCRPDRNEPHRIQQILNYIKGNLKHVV

[2] = tested on: Jurkat; assay: cells; format: functional; settings: Homo sapiens, 44 h
[3] = target: T2, Histone deacetylase 2 (Homo sapiens, UniProt Q92769); assay: Inhibition of HDAC2 (unknown origin) assessed as remaining enzyme activity at 4 x 10^-6 M by ELISA-based assay
T2 sequence (Q92769 whole entry): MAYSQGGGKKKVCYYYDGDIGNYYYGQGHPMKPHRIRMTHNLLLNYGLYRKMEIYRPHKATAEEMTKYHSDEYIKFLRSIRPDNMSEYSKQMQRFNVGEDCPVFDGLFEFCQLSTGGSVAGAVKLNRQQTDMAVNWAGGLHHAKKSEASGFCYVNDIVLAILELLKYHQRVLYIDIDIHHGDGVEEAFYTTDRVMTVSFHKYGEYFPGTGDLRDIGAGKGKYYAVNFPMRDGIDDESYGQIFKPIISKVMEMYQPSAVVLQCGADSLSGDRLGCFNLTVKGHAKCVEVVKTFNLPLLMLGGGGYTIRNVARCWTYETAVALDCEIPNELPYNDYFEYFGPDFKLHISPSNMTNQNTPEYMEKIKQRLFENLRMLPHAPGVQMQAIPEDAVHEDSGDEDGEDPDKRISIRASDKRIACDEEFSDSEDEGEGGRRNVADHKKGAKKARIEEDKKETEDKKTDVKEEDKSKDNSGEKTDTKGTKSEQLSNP

[4] = target: T3, Histone deacetylase 3 (Homo sapiens, UniProt O15379); assay: Inhibition of HDAC3 (unknown origin) assessed as remaining enzyme activity at 4 x 10^-6 M by ELISA-based assay
T3 sequence (O15379 whole entry): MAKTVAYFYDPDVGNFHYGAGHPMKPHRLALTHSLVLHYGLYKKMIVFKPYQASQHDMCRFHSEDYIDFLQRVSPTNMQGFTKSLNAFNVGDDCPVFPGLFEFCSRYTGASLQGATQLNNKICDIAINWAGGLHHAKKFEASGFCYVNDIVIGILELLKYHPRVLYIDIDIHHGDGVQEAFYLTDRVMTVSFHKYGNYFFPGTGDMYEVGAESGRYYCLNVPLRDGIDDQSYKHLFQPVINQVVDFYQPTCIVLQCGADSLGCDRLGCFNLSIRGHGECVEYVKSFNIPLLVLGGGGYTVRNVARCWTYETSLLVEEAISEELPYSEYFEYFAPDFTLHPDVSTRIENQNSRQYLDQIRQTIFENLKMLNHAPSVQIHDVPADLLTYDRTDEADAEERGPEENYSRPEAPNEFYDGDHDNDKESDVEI

[5] = target: T4, Histone deacetylase 8 (Homo sapiens, UniProt Q9BY41); assay: Inhibition of HDAC8 (unknown origin) by ELISA-based assay
T4 sequence (Q9BY41 whole entry): T1 sequence (whole entry)

[6] = tested on: Jurkat; assay: cells; format: functional; settings: Homo sapiens, 44 h; remark: listed apart in the source
[7] = target: T5, Histone deacetylase 1 (Homo sapiens, UniProt Q13547); assay: Inhibition of HDAC1 (unknown origin) by ELISA-based assay
T5 sequence (Q13547 whole entry): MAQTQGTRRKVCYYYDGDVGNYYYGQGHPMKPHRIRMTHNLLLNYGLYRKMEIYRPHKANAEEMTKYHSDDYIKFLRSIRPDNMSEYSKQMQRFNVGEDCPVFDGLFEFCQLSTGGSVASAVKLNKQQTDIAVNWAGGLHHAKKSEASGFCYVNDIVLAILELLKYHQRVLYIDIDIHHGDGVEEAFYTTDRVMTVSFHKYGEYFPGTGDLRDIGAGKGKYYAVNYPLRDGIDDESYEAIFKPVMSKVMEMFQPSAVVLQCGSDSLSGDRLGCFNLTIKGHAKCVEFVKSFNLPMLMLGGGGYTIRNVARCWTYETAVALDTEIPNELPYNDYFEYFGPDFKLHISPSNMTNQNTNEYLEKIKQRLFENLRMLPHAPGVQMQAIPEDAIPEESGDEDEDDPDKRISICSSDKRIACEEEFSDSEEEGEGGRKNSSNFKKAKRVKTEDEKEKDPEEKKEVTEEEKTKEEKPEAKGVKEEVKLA

[8] = target: T6, Protein deacetylase HDAC6 (Homo sapiens) (UniProt Q9UBN7); assay: Inhibition of HDAC6 (unknown origin) assessed as remaining enzyme activity at 4 x 10^-7 M by ELISA-based assay
T6 sequence (whole entry): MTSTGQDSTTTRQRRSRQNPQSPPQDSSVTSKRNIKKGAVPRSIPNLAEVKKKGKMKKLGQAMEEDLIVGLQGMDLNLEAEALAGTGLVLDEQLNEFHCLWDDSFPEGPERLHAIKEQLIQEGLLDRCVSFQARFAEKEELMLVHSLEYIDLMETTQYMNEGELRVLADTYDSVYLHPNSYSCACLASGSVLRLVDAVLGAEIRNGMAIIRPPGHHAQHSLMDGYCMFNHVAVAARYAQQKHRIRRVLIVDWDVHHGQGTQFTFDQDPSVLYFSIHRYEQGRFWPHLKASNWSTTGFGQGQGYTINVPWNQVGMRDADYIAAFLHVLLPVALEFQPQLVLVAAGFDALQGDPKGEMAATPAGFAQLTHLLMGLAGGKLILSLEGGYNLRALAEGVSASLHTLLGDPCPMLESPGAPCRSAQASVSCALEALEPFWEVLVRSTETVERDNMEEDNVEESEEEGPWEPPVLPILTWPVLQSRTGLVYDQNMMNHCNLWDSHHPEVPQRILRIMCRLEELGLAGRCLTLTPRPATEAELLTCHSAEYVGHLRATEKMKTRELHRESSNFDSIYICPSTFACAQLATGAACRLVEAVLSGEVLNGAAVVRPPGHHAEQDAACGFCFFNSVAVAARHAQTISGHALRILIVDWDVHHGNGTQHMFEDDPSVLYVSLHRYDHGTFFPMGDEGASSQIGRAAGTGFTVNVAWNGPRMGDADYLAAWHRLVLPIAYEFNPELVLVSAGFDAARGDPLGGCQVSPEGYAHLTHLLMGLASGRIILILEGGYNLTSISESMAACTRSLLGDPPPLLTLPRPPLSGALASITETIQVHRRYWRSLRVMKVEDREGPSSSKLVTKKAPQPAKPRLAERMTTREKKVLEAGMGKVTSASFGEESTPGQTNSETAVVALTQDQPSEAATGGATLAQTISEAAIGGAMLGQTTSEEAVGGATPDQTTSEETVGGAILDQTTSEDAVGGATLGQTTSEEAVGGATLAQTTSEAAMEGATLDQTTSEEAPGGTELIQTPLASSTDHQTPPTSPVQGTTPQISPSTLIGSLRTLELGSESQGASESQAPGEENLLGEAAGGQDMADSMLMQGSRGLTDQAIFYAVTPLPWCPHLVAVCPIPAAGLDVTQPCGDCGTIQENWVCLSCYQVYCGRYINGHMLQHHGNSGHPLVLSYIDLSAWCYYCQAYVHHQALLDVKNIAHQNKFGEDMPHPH

[9] = target: T5, Histone deacetylase 1; assay: Inhibition of HDAC1 (unknown origin) assessed as remaining enzyme activity at 4 x 10^-6 M by ELISA-based assay
[10] = target: T6, Protein deacetylase HDAC6 (Homo sapiens); assay: Inhibition of HDAC6 (unknown origin) assessed as remaining enzyme activity at 1 x 10^-7 M by ELISA-based assay
[11] = target: T2, Histone deacetylase 2; assay: Inhibition of HDAC2 (unknown origin) assessed as remaining enzyme activity at 2 x 10^-6 M by ELISA-based assay
[12] = target: T1, Histone deacetylase 8 (Homo sapiens); assay: Inhibition of HDAC8 (unknown origin) assessed as remaining enzyme activity at 1 x 10^-7 M by ELISA-based assay
[13] = target: T2, Histone deacetylase 2; assay: Inhibition of HDAC2 (unknown origin) by ELISA-based assay
[14] = target: T1, Histone deacetylase 8 (Homo sapiens); assay: Inhibition of HDAC8 (unknown origin) assessed as remaining enzyme activity at 4 x 10^-7 M by ELISA-based assay
[15] = target: T1, Histone deacetylase 8 (Homo sapiens); assay: Inhibition of HDAC8 (unknown origin) assessed as remaining enzyme activity at 8 x 10^-7 M by ELISA-based assay
[16] = target: T1, Histone deacetylase 8 (Homo sapiens); assay: Inhibition of HDAC8 (unknown origin) assessed as remaining enzyme activity at 2 x 10^-7 M by ELISA-based assay
[17] = target: T6, Protein deacetylase HDAC6 (Homo sapiens); assay: Inhibition of HDAC6 (unknown origin) assessed as remaining enzyme activity at 8 x 10^-7 M by ELISA-based assay
[18] = target: T6, Protein deacetylase HDAC6 (Homo sapiens); assay: Inhibition of HDAC6 (unknown origin) assessed as remaining enzyme activity at 5 x 10^-8 M by ELISA-based assay
[19] = target: T5, Histone deacetylase 1; assay: Inhibition of HDAC1 (unknown origin) assessed as remaining enzyme activity at 2 x 10^-6 M by ELISA-based assay
[20] = target: T3, Histone deacetylase 3; assay: Inhibition of HDAC3 (unknown origin) by ELISA-based assay
[21] = target: T6, Protein deacetylase HDAC6 (Homo sapiens); assay: Inhibition of HDAC6 (unknown origin) assessed as remaining enzyme activity at 2 x 10^-7 M by ELISA-based assay
[22] = target: T5, Histone deacetylase 1; assay: Inhibition of HDAC1 (unknown origin) assessed as remaining enzyme activity at 5 x 10^-7 M by ELISA-based assay
[23] = target: T3, Histone deacetylase 3; assay: Inhibition of HDAC3 (unknown origin) assessed as remaining enzyme activity at 2 x 10^-6 M by ELISA-based assay
[24] = target: T7, Protein deacetylase HDAC6 (Homo sapiens, UniProt Q9UBN7); assay: Inhibition of HDAC6 (unknown origin) by ELISA-based assay
T7 sequence (Q9UBN7 whole entry): T6 sequence (whole entry)

Activity [1] | Activity [3] | Activity [4] | IC50 [5] | IC50 [7] | Activity [8] | Activity [9] | Activity [10] | Activity [11] | Activity [12] | IC50 [13] | Activity [14] | Activity [15] | Activity [16] | Activity [17] | Activity [18] | Activity [19] | IC50 [20] | Structure (SMILES) | viability at 1 µM [2] | viability at 10 µM [6] | further results
19% | 49% | 53% | 380 nM | 2900 nM | 43% | 45% | 76% | 62% | 82% | 3500 nM | 47% | 33% | 65% | 26% | 83% | 54% | 5800 nM | O=C(CCCC(CCC(=O)Nc1ccccc1)Cc1ccccc1)NO (configuration not stated) | 71% | 50% | Activity [21]: 54%; Activity [22]: 84%; Activity [23]: 85%; IC50 [24]: 270 nM
21% | 41% | 39% | 420 nM | 2100 nM | 54% | 37% | 69% | 57% | 78% | 2500 nM | 51% | 35% | 70% | 34% | 82% | 54% | 2900 nM | CCCCCCC(CCCC(=O)NO)CCC(=O)Nc1ccccc1 (configuration not stated) | 101% | 24% | Activity [21]: 66%; Activity [22]: 77%; Activity [23]: 67%; IC50 [24]: 410 nM
22% | 25% | 27% | 430 nM | 1100 nM | 48% | 18% | 70% | 38% | 83% | 1300 nM | 50% | 35% | 69% | 28% | 90% | 37% | 1600 nM | CCCCC(CCCC(=O)NO)CCC(=O)Nc1ccccc1 (configuration not stated) | 67% | 39% | Activity [21]: 60%; Activity [22]: 68%; Activity [23]: 44%; IC50 [24]: 320 nM
